Measured values: ChEMBL document CHEMBL1136658, “Design and synthesis of potent, non-peptide inhibitors of HCV NS3 protease” (Bioorg Med Chem Lett, 2003)
Peptide text beside a SMILES is read from it. * marks the point of attachment. X1 = C=CC[C@H](N*)B1OC2CC3CC(C3(C)C)[C@@]2(C)O1

target: T1, NS3 (Hepatitis C virus, UniProt A3EZJ3); assay: Inhibitory concentration against HCV NS3 protease was determined; parameters: species or system Hepacivirus hominis
T1 sequence (A3EZJ3 whole entry): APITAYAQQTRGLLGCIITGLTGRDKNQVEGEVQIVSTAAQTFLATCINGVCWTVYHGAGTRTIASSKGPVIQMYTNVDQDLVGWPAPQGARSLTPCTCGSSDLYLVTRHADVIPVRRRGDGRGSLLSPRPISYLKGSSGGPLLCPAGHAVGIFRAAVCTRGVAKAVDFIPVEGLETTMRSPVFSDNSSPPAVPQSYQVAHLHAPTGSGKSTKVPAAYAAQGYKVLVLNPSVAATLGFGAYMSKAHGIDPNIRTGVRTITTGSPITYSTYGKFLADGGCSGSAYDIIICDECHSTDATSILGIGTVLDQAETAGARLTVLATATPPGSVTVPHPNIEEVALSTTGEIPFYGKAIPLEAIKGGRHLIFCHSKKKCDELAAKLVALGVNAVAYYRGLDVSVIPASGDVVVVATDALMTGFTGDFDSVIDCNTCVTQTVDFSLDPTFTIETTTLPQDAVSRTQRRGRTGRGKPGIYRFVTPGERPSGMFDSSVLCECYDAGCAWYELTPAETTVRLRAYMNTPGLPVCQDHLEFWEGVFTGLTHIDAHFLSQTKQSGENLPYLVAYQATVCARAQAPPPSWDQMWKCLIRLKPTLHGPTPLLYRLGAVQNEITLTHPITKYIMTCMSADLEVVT

| Ki | SMILES |
| --- | --- |
| 4 nM | C=CC[C@H](NC(=O)[C@@H]1CCCN1C(=O)[C@@H](NC(=O)[C@@H](NC(=O)[C@H](CCC(=O)O)NC(=O)[C@H](CC(=O)O)NC(C)=O)C(C)C)C(C)C)B1OC2CC3CC(C3(C)C)[C@@]2(C)O1 (stereo not given in full) (Ac-DEVVP-X1) |

target: T1, NS3; assay: Inhibitory concentration against HCV NS3 protease.; parameters: species or system Hepacivirus hominis

| SMILES | IC50 |
| --- | --- |
| C=CC[C@H](NC(=O)[C@@H]1CCc2c(Cl)nc(NCc3cccc(C(F)(F)F)c3)c(=O)n21)B1OC2CC3CC(C3(C)C)[C@@]2(C)O1 (stereo not given in full) | 4600 nM |
| C=CC[C@H](NC(=O)[C@@H]1C[C@@H](Cc2ccc(-c3ccccc3)cc2)c2c(Cl)nc(NCc3cccc(C(F)(F)F)c3)c(=O)n21)B1OC2CC3CC(C3(C)C)[C@@]2(C)O1 (stereo not given in full) | 60 nM |
| C=CC[C@H](NC(=O)[C@@H]1C[C@@H](Cc2ccc(OC)cc2)c2c(Cl)nc(NCc3cccc(C(F)(F)F)c3)c(=O)n21)B1OC2CC3CC(C3(C)C)[C@@]2(C)O1 (stereo not given in full) | 50 nM |
| C=CC[C@H](NC(=O)[C@@H]1C[C@@H](CCCc2cccc3ccccc23)c2c(Cl)nc(NCc3ccc(O)c(O)c3)c(=O)n21)B1OC2CC3CC(C3(C)C)[C@@]2(C)O1 (stereo not given in full) | 110 nM |
| C=CC[C@H](NC(=O)[C@@H]1C[C@@H](CCCc2ccc3ccccc3c2)c2c(Cl)nc(NCC3CCCCC3)c(=O)n21)B1OC2CC3CC(C3(C)C)[C@@]2(C)O1 (stereo not given in full) | 200 nM |
| C=CC[C@H](NC(=O)[C@@H]1C[C@@H](CCCc2ccc3ccccc3c2)c2c(Cl)nc(N)c(=O)n21)B1OC2CC3CC(C3(C)C)[C@@]2(C)O1 (stereo not given in full) | 190 nM |
| C=CC[C@H](NC(=O)[C@@H]1C[C@@H](Cc2cccc(C)c2)c2c(Cl)nc(NCc3cccc(C(F)(F)F)c3)c(=O)n21)B1OC2CC3CC(C3(C)C)[C@@]2(C)O1 (stereo not given in full) | 400 nM |
| C=CC[C@H](NC(=O)[C@@H]1C[C@@H](CCCc2ccc3ccccc3c2)c2c(Cl)nc(NCCCC)c(=O)n21)B1OC2CC3CC(C3(C)C)[C@@]2(C)O1 (stereo not given in full) | 160 nM |
| C=CC[C@H](NC(=O)[C@@H]1C[C@@H](Cc2ccc(C)cc2)c2c(Cl)nc(NCc3cccc(C(F)(F)F)c3)c(=O)n21)B1OC2CC3CC(C3(C)C)[C@@]2(C)O1 (stereo not given in full) | 60 nM |
| C=CC[C@H](NC(=O)[C@@H]1C[C@@H](CCCc2cccc3ccccc23)c2c(Cl)nc(NCCC)c(=O)n21)B1OC2CC3CC(C3(C)C)[C@@]2(C)O1 (stereo not given in full) | 180 nM |
| C=CC[C@H](NC(=O)[C@@H]1C[C@@H](CCCc2cccc3ccccc23)c2c(Cl)nc(NCC(C)C)c(=O)n21)B1OC2CC3CC(C3(C)C)[C@@]2(C)O1 (stereo not given in full) | 170 nM |
| C=CC[C@H](NC(=O)[C@@H]1C[C@@H](Cc2cccc(OC)c2)c2c(Cl)nc(NCc3cccc(C(F)(F)F)c3)c(=O)n21)B1OC2CC3CC(C3(C)C)[C@@]2(C)O1 (stereo not given in full) | 260 nM |
| C=CC[C@H](NC(=O)[C@@H]1C[C@@H](CCCc2ccc3ccccc3c2)c2c(Cl)nc(NC)c(=O)n21)B1OC2CC3CC(C3(C)C)[C@@]2(C)O1 (stereo not given in full) | 320 nM |
| C=CC[C@H](NC(=O)[C@@H]1C[C@@H](CCCc2cccc3ccccc23)c2c(Cl)nc(NCc3cccc(F)c3)c(=O)n21)B1OC2CC3CC(C3(C)C)[C@@]2(C)O1 (stereo not given in full) | 60 nM |
| C=CC[C@H](NC(=O)[C@@H]1C[C@@H](CCCc2cccc3ccccc23)c2c(Cl)nc(NCC)c(=O)n21)B1OC2CC3CC(C3(C)C)[C@@]2(C)O1 (stereo not given in full) | 230 nM |

Now from value to compound:

| IC50 | SMILES |
| --- | --- |
| 260 nM | C=CC[C@H](NC(=O)[C@@H]1C[C@@H](Cc2ccccc2)c2c(Cl)nc(NCc3cccc(C(F)(F)F)c3)c(=O)n21)B1OC2CC3CC(C3(C)C)[C@@]2(C)O1 (stereo not given in full) |
| 240 nM | C=CC[C@H](NC(=O)[C@@H]1C[C@@H](CCCc2ccc3ccccc3c2)c2c(Cl)nc(NCc3ccccc3)c(=O)n21)B1OC2CC3CC(C3(C)C)[C@@]2(C)O1 (stereo not given in full) |
| 2000 nM | C=CC[C@H](NC(=O)[C@@H]1C[C@H](CCCc2ccccc2)c2c(Cl)nc(NCc3cccc(C(F)(F)F)c3)c(=O)n21)B1OC2CC3CC(C3(C)C)[C@@]2(C)O1 (stereo not given in full) |
| 20 nM | CC[C@H](NC(=O)[C@@H]1C[C@@H](CCCc2ccc3ccccc3c2)c2c(Cl)nc(NCc3cccc(C(F)(F)F)c3)c(=O)n21)B1OC2CC3CC(C3(C)C)[C@@]2(C)O1 (stereo not given in full) |
| 20 nM | C=CC[C@H](NC(=O)[C@@H]1C[C@@H](CCCc2ccc3ccccc3c2)c2c(Cl)nc(NCc3cccc(C(F)(F)F)c3)c(=O)n21)B1OC2CC3CC(C3(C)C)[C@@]2(C)O1 (stereo not given in full) |
| 90 nM | C=CC[C@H](NC(=O)[C@@H]1C[C@@H](CCCc2ccc3ccccc3c2)c2c(Cl)nc(NCc3ccccn3)c(=O)n21)B1OC2CC3CC(C3(C)C)[C@@]2(C)O1 (stereo not given in full) |
| 510 nM | C=CC[C@H](NC(=O)[C@@H]1C[C@H](CCCc2ccc3ccccc3c2)c2c(Cl)nc(NCc3cccc(C(F)(F)F)c3)c(=O)n21)B1OC2CC3CC(C3(C)C)[C@@]2(C)O1 (stereo not given in full) |
| 60 nM | C=CC[C@H](NC(=O)[C@@H]1C[C@@H](CCCc2ccccc2)c2c(Cl)nc(NCc3cccc(C(F)(F)F)c3)c(=O)n21)B1OC2CC3CC(C3(C)C)[C@@]2(C)O1 (stereo not given in full) |
| 60 nM | C=CC[C@H](NC(=O)[C@@H]1C[C@@H](CCCc2ccc3ccccc3c2)c2c(Cl)nc(NCc3cccc(OC)c3)c(=O)n21)B1OC2CC3CC(C3(C)C)[C@@]2(C)O1 (stereo not given in full) |
